Values quoted from earlier work in paper PMC4112557 (Bioconjugate Chemistry, 2014).
Where a SMILES comes first, the peptide text is derived from it.

Molecular target: PSMA (Homo sapiens, UniProt Q04609)
Conditions: hydrolysis of NAAG in the amplex red assay

Sequence of PSMA (Q04609 whole entry): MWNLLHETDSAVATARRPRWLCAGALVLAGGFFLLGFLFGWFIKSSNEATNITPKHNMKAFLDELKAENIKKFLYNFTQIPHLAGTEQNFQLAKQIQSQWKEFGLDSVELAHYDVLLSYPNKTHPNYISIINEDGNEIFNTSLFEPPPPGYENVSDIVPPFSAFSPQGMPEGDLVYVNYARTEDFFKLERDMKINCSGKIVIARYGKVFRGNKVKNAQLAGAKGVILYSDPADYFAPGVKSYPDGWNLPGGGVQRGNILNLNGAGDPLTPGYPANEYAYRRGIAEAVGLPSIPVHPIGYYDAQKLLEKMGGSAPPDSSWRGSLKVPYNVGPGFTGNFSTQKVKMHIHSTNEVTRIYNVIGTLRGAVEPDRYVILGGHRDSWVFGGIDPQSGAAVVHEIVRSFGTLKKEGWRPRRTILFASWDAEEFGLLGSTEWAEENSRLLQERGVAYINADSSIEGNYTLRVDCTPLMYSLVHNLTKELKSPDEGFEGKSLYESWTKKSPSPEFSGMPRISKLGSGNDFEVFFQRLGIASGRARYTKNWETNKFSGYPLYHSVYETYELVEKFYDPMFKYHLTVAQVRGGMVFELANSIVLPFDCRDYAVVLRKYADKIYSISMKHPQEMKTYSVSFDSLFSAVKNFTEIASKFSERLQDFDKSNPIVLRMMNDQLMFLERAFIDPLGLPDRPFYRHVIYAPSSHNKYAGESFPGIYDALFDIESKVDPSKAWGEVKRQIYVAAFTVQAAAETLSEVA

Km: 1.15 µM
Structure (SMILES): CC(=O)N[C@@H](CC(=O)O)C(=O)N[C@@H](CCC(=O)O)C(=O)O [NAAG, N-acetylaspartylglutamic acid] (Ac-Asp-Glu-OH)
